Reference: patent publication EP0379367B1, “Method for the prevention of intrinsically aged skin with retinoids” (ORTHO PHARMACEUTICAL CORPORATION, priority 1989, dated 1990)
Entries after “also recorded” stand apart in the source; their conditions may differ.

Key:
[1] = system: Female Albino hairless mice (Skh-hairless-1); details: mouse, in vivo
Procedure: (§1) Lifetime Application of all-trans-Retinoic Acid to Albino Hairless Mice.
(§2) Female Albino hairless mice (Skh-hairless-1), age 8-11 weeks, were treated topically, three times a week, for the remainder of their life span as follows:
(§3) The mice were examined monthly for skin changes and possible weight loss that might indicate a toxic effect.
(§4) Toward the end of the study, mice were photographed to show the condition of the skin. A few mice were sacrificed at about 70, 80 and 90 weeks, with dorsal skin taken for histochemical evaluation. The remainder were allowed to live out their life span which ranged from 91-106 weeks and were biopsied when moribound, if possible. The histochemical stains were: H&E for general histology, Luna's for elastic fibers, Van Gieson's for collagen and Mowry's for proteoglycans.

[2] = system: Female Albino hairless mice (Skh-hairless-1); assay: Lifetime topical application of all-trans-retinoic acid to albino hairless mice (toxicity, clinical and histochemical skin observations); details: for clinical observations: condition of the skin: lifetime application, mice 91-106 weeks of age at photograph (Figure 1), versus vehicle and untreated controls
Procedure: as §1, §2, §3, §4

SMILES: CC1=C(/C=C/C(C)=C/C=C/C(C)=C/C(=O)O)C(C)(C)CCC1 [all-trans-retinoic acid]
- adverse or unusual effects at biopsy and necropsy [1]: no indication that the mice suffered any adverse or unusual effects
- weights of mice [1]: no difference in the weights
- mortality ([2]; 0.025% (100 µl) topically, three times a week, remainder of life span, compared with cream vehicle and untreated groups): no difference in mortality
- clinical observations: condition of the skin [2]: thinner, pinker, more uniform skin than the controls
- clinical observations: condition of the skin ([2]; listed as All-trans-retinoic acid): thinner, pinker, more uniform skin than controls or untreated mice
- collagen in the repair zones (Van Gieson's stain) ([2]; lifetime treatment): stained mainly as normal, mature collagen
- dermal inflammation (H&E) ([2]; lifetime treatment): mild inflammatory infiltrate in the mid-dermis
- epidermal cell morphology (H&E) ([2]; lifetime treatment): plump, cytologically normal and have abundant cytoplasm; also recorded: plump, cytologically normal and had an abundant cytoplasm
- granular layer of epidermis (H&E) ([2]; lifetime treatment): about 4 cell layers
- elastic fibers (Luna's stain) ([2]; lifetime treatment (Figure 4)): increased amount of new elastic fibers
- glycosamino-/proteoglycan deposits at the dermal-epidermal junction (Mowry's stain) ([2]; lifetime treatment, compared with the other groups): Fewer deposits
- epidermis (H&E), thickness ([2]; lifetime treatment, hyperplastic, controls had the usual 2-4 compressed-looking cells): about 8 cell layers
- new collagen (H&E; Luna's stain) ([2]; lifetime treatment, no repair areas in controls): Areas of new collagen were apparent
- granular layer of epidermis (H&E, Figure 4) ([2]; lifetime treatment, sample from a mouse 95 weeks of age): approximately 4 cells
- dermal glycosaminoglycans or proteoglycans (Mowry's stain) ([2]; lifetime treatment, stated for all groups): little or no increase
- blood vessels (H&E) ([2]; lifetime treatment, unlike in the controls): abundance of new blood vessels; also recorded: readily seen
- toxic effects ([2]; treatment over a lifetime): no detectable toxic effects
